This passage reports IC50 results from US10894788B2, “Inhibitors of cyclin-dependent kinases” (Kinnate Biopharma Inc., priority 2018, dated 2021).

For one assay, the target named is CDK12 (Homo sapiens (Human), UniProt Q9NYV4). Kind of assay: Radiometric protein kinase assay (33PanQinase Activity Assay), Assay Condition B (thiol-free conditions). Type of assay: biochemical. The conditions noted are these: thiol-free conditions (1 mM TCEP, glutathione removed). The essentials:
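Radiometric 33PanQinase assay under thiol-free conditions: glutathione removed from protein preparations and no thiol reagents in buffer. Ten concentrations, 1×10^−05 M to 3×10^−10 M, singlicate, 1% DMSO final. Residual activity normalised to no-enzyme and no-inhibitor controls; IC50 by least-squares fit.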

Another assay has as its target CDK12 wt/CycK (Homo sapiens (Human), UniProt Q9NYV4). The experiment in a line: Radiometric protein kinase assay (33PanQinase Activity Assay), Assay Condition A (thiol containing conditions). Type of assay: biochemical. The conditions noted are these: thiol containing conditions (1.2 mM DTT), ATP 0.3 μM; read-out: CDK12 IC50 Condition A. The method, boiled down: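 Recombinant human kinase incubated with [33P]ATP, substrate and compound (10 concentrations, 1×10^−04M to 3×10^−09M, singlicate, 1% DMSO) under thiol-containing buffer conditions, 60 min at 30 °C. 33Pi incorporation counted by scintillation; residual activity normalised to no-inhibitor and no-kinase controls, IC50 derived.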

Assay [1] deals with panel of 1,151 cancer cell lines. The conditions noted are these: in 52% of 1,151 cancer cell lines; cited from earlier work.

Sequence of CDK12 wt/CycK (Q9NYV4 whole entry): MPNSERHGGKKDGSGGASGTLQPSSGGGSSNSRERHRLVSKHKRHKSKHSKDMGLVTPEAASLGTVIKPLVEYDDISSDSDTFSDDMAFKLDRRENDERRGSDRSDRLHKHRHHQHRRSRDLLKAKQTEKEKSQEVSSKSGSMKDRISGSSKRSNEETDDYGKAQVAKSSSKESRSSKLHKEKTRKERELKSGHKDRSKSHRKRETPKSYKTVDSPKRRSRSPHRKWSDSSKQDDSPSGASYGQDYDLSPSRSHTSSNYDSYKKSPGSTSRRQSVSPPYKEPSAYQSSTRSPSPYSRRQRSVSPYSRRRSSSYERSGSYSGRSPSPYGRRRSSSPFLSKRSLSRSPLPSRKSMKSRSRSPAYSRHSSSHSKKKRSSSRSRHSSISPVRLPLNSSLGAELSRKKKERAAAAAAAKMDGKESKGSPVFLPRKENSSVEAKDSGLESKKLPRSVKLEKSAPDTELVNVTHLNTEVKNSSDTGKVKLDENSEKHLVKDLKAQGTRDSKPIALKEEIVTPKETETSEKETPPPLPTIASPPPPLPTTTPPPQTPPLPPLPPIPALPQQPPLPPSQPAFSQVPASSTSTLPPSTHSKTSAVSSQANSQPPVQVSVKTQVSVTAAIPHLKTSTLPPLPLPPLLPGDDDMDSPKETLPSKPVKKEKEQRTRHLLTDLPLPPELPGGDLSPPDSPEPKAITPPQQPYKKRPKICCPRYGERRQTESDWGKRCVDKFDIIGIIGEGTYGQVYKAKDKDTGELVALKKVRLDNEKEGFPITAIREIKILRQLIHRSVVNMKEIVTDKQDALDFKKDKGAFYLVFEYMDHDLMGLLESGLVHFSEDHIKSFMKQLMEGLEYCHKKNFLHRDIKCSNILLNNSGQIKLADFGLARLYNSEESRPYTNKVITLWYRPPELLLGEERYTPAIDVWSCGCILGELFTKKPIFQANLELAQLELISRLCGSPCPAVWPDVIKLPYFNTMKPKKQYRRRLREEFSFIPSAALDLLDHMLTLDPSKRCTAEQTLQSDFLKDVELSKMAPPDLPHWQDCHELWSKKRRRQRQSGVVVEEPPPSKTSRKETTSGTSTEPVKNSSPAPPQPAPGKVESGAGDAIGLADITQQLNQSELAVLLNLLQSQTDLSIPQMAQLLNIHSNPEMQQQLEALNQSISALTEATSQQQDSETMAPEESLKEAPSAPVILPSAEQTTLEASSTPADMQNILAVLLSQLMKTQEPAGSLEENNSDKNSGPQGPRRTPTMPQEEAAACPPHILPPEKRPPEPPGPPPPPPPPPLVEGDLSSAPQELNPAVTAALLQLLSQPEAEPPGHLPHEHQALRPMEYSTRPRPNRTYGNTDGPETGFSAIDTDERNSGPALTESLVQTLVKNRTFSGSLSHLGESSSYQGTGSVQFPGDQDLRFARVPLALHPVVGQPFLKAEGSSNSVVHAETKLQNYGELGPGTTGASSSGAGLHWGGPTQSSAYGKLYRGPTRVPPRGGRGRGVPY
Sequence of CDK12 wt/CycK (O75909 whole entry partner): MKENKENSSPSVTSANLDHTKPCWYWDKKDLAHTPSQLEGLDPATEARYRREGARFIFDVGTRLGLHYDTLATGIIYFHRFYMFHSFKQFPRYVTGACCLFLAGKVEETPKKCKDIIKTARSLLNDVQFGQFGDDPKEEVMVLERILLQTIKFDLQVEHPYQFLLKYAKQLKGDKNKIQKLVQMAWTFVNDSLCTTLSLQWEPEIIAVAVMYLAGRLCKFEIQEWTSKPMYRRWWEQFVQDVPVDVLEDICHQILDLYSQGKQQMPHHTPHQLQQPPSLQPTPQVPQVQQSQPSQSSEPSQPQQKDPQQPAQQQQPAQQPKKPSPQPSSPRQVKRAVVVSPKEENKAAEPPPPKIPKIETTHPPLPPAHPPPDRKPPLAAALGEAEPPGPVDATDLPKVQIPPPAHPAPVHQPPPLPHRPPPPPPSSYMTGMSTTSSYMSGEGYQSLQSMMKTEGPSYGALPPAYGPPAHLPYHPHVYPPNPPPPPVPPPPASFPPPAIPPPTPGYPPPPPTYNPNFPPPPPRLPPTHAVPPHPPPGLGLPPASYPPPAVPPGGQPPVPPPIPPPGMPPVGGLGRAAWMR
Sequence of CDK12 (Q9NYV4 whole entry): as the sequence (Q9NYV4 whole entry) above
Sequence of CDK12 (O75909 whole entry partner): as the sequence (O75909 whole entry partner) above

On to `C=CC(=O)Nc1ccc(C(=O)N2CC[C@@H](Nc3ncc(Br)c(OC)n3)C2)cc1` [Example 20, (R)—N-(4-(3-((5-bromo-4-methoxypyrimidin-2-yl)amino)pyrrolidine-1-carbonyl)phenyl)acrylamide], for which the IC50 on CDK12 and at CDK12 wt/CycK was under 100 nM each time.

As for `C=CC(=O)N(C)c1ccc(C(=O)N2CC[C@@H](Nc3ncc(Cl)c(OC)n3)C2)cc1` [Example 25, (R)—N-(4-(3-((5-chloro-4-methoxypyrimidin-2-yl)amino)pyrrolidine-1-carbonyl)phenyl)-N-methylacrylamide], the IC50 at CDK12 and at CDK12 wt/CycK was under 100 nM each time. `C=CC(=O)Nc1ccc(C(=O)N2CC[C@@H](Nc3ncc(Cl)c(OC)n3)C2)cc1C` [Example 26, (R)—N-(4-(3-((5-chloro-4-methoxypyrimidin-2-yl)amino)pyrrolidine-1-carbonyl)-2-methylphenyl)acrylamide]: the IC50 against CDK12 and at CDK12 wt/CycK was under 100 nM in each case. Consider `C=CC(=O)N(C)c1ccc(C(=O)N2CC[C@@H](Nc3ncc(Cl)cn3)C2)cc1` [Example 28, (R)—N-(4-(3-((5-chloropyrimidin-2-yl)amino)pyrrolidine-1-carbonyl)phenyl)-N-methylacrylamide], for which the IC50 at CDK12 and at CDK12 wt/CycK was 100 to 1000 nM in each case.

`C=CC(=O)Nc1ccc(C(=O)N2CC[C@@H](Nc3ncc(Cl)cn3)C2)cc1C` [Example 29, (R)—N-(4-(3-((5-chloropyrimidin-2-yl)amino)pyrrolidine-1-carbonyl)-2-methylphenyl)acrylamide]: the IC50 at CDK12 is under 100 nM; on CDK12 wt/CycK it was 100 to 1000 nM. In the case of `C=CC(=O)Nc1ccc(C(=O)N2CC[C@@H](Nc3ncc(Cl)c(OC)n3)C2)cc1` [Example 47, (R)—N-(4-(3-((5-chloro-4-methoxypyrimidin-2-yl)amino)pyrrolidine-1-carbonyl)phenyl)acrylamide], the IC50 at CDK12 and at CDK12 wt/CycK was under 100 nM in each case. For `C=CC(=O)Nc1ccc(C(=O)N2CC[C@@H](Nc3ncc(Cl)c(C)n3)C2)cc1` [Example 52, (R)—N-(4-(3-((5-chloro-4-methylpyrimidin-2-yl)amino)pyrrolidine-1-carbonyl)phenyl)acrylamide], the results for the IC50 against CDK12 and at CDK12 wt/CycK were under 100 nM and 100 to 1000 nM, respectively. The like results for `C=CC(=O)Nc1ccc(C(=O)N2CC[C@@H](Nc3cnc(Cl)cn3)C2)cc1` [Example 53, (R)—N-(4-(3-((5-chloropyrazin-2-yl)amino)pyrrolidine-1-carbonyl)phenyl)acrylamide] were, in that order, 100 to 1000 nM and 100 to 1000 nM. In the case of `C=CC(=O)Nc1ccc(C(=O)N2CC[C@@H](Nc3cc(OC)c(Cl)cn3)C2)cc1` [Example 54, (R)—N-(4-(3-((5-chloro-4-methoxypyridin-2-yl)amino)pyrrolidine-1-carbonyl)phenyl)acrylamide], the IC50 at CDK12 and on CDK12 wt/CycK was under 100 nM in each case. As to `C=CC(=O)Nc1ccc(C(=O)N2CC[C@@H](Nc3cc(C)c(Cl)cn3)C2)cc1` [Example 55, (R)—N-(4-(3-((5-chloro-4-methylpyridin-2-yl)amino)pyrrolidine-1-carbonyl)phenyl)acrylamide], the IC50 is under 100 nM at CDK12 and 100 to 1000 nM on CDK12 wt/CycK. Taken in the same sequence, the figures for `C=CC(=O)Nc1ccc(C(=O)N2CC[C@@H](Nc3ncc(C4CC4)cn3)C2)cc1` [Example 58, (R)—N-(4-(3-((5-cyclopropylpyrimidin-2-yl)amino)pyrrolidine-1-carbonyl)phenyl)acrylamide] were under 100 nM and 100 to 1000 nM. Taken in the same sequence, the figures for `C=CC(=O)Nc1ccc(C(=O)N2CC[C@@H](Nc3ncc(F)c(OC)n3)C2)cc1` [Example 59, (R)—N-(4-(3-((5-fluoro-4-methoxypyrimidin-2-yl)amino)pyrrolidine-1-carbonyl)phenyl)acrylamide] were 100 to 1000 nM and 1000 to 10000 nM.

`C=CC(=O)Nc1ccc(C(=O)N2CC[C@@H](Nc3ncc(Cl)c(NC)n3)C2)cc1` [Example 62, (R)—N-(4-(3-((5-chloro-4-(methylamino)pyrimidin-2-yl)amino)pyrrolidine-1-carbonyl)phenyl)acrylamide]: the half-inhibitory concentration (IC50) at CDK12 and at CDK12 wt/CycK was under 100 nM each time. For `CN(C)C/C=C/C(=O)Nc1ccc(C(=O)Nc2cccc(Nc3ncc(Cl)c(-c4c[nH]c5ccccc45)n3)c2)cc1` [THZ1], in assay [1], the 50% inhibitory concentration (IC50) was under 200 nM.
